In patent US20170281509A1, “COMPOSITIONS AND METHODS FOR MITIGATING SKIN IRRITATION” (GOJO INDUSTRIES, INC., priority 2014, published 2017):

System: IL-8 secretion by human dermal keratinocytes
Assay: IL-8 secretion (ELISA) in human dermal keratinocytes co-treated with irritant surfactant mixture
Format: cell-based
Details: FIG. 1
From the text: Interleukin 8 (IL-8) is a chemokine and proinflammatory cytokine produced by macrophages and other cell types such as epithelial cells. It is secreted from keratinocytes in skin in response to inflammatory stimuli. IL-8 is secreted and is an important mediator of the immune reaction in the innate immune system response. IL-8 overexpressed is a biomarker of skin irritation. Thus, the following method may be employed to measure the irritancy potential of an ingredient or combination of ingredients.
For Control A, human dermal keratinocytes were left untreated. No irritation is expected, and therefore Control A provided a baseline. For Control B, IL-8 was induced in human dermal keratinocytes by applying a surfactant mixture that is a combination of sodium laureth sulfate and polyquaternium-10. For all other samples, the human dermal keratinocytes were co-treated with the surfactant mixture and a composition containing the ingredient of interest. Decreased IL-8 expression reflects the ingredient's anti-irritation activity. In other words, decreased IL-8 expression reflects reduced irritancy potential.
In order to carry out the test method, an assay kit was employed that was obtained from R&D Systems: Human CXCL8/IL-8 Duoset ELISA Kit.
The following steps were followed: 1. […] Using a colorimeter, absorbance of each well in the plates was measured at 450 nanometers (nm) within 30 minutes. […]

## acetyl hexapeptide-51 amide
  effect on IL-8 secretion compared to Control B (in words): reduced IL-8 secretion
